Data reported in US20190262291A1, “METHODS AND COMPOSITIONS FOR ALLEVIATING MYOPATHY” (priority 2016, published 2019).
Like-named read-outs stand apart in the source and are kept apart here.

Assays:
[1] = towards oxygenation in humans; cited from earlier work
[2] = in vivo; cited from earlier work
[3] = tested on: Human; conditions: cited from earlier work
[4] = tested on: rats; conditions: oral ingestion, cited from earlier work
[5] = tested on: patients with statin-induced myopathy (SIM); assay: Example 1: HMB and leucic acid combination therapy in patients with statin-induced myopathy; type: in vivo, human; conditions: two patients with SIM on statin, summary
Procedure: The effects of combined administration of HMB and leucic acid was studied in two patients with statin-induced myopathy (SIM). Both patients enrolled were under the care of a board certified cardiologist. […] person with a history of PCI/coronary stent ramus intermedius; historically statin intolerant lipid disorder with LDL=168, total cholesterol=281, with triglycerides=316 on a hypolipidemic regimen of Welchol, 6 tabs/d (for a total of 1500-3000 mg/d) and Zetia, 10 mg/d; unable to achieve goal (i.e., LDL cholesterol <100 mg % in patients with coronary risk factors and <70 mg % in coronary patients (with previous myocardial infarction (MI), percutaneous coronary intervention (PCI), or coronary bypass surgery) as well as patients with peripheral vascular disease and diabetics) off statins and therefore begun on Vytorin, 10/40 mg daily+3-hydroxy 3-methyl butyrate (HMB) at 2 grams BID. […] person with angiographic small vessel disease; type 2 diabetes and type 2a hyperlipidemia; history of statin intolerance with myalgia, weakness and severely elevated CPKs (900-1000 range, normal 200); patient therefore treated with Welchol 6 grams/d and Zetia 10 mg/d with an LDL=185 on this regimen. The patient was subsequently placed on Crestor 20 mg/d+HMB 2 grams BID with a drop in LDL=49 and improved CPK levels (300-400 range).

[6] = NOAEL for HMB oral ingestion in rats (Baxter et al.); type: in vivo, rat; conditions: for estimated human equivalent dose of rat NOAEL: in vivo, oral; for estimated human equivalent of NOAEL as total amount: assuming a body weight of 150 lbs
Procedure: This is an estimated human equivalent of 558 mg/kg and 665 mg/kg for men and women, respectively; assuming a body weight of 150 lbs equates to 38 g (males) and 45 g (females). […] Overall, standard doses of HMB appear to be well-tolerated over long periods of time.

SMILES	reaction half time [1] [min]	half-lives [2]	time to reach peak levels [2]	toxicological parameters in serum ([3]; 3 g HMB daily for up to 8 weeks, youth and older persons)	safety of long-term administration ([3]; 3 g daily, one year of administration)	toxic effects on serum parameters ([3]; approximately 6 g HMB daily (78 mg/kg) for one month, untrained young males subject to exercise)	basophils ([3]; half the dose (of approximately 6 g daily), considered to be insignificant)	tolerability ([3]; standard doses over long periods of time)	No Observed Adverse Effect Level (NOAEL) ([4]; female rats) [mg/kg]	No Observed Adverse Effect Level (NOAEL) ([4]; male rats) [mg/kg]	resolution of SIM [5]	estimated human equivalent dose of rat NOAEL ([6]; female, women) [mg/kg]	estimated human equivalent of NOAEL as total amount ([6]; females) [g]	estimated human equivalent dose of rat NOAEL ([6]; male, men) [mg/kg]	estimated human equivalent of NOAEL as total amount ([6]; males) [g]
CC(C)CC(O)C(=O)O (centres unmarked) [leucic acid, 2-hydroxy-4-methylpentanoic acid]	230	relatively short	quickly												
CC(C)(O)CC(=O)O [HMB, β-hydroxy β-methylbutyrate]		relatively short	quickly	failed to alter toxicological parameters in serum	safe	did not show any toxic effects	spontaneous increase in basophils	well-tolerated	4160	3490	incomplete resolution of SIM	665	45	558	38
